Reference: ChEMBL document CHEMBL5696442, “Discovery of type II inhibitors of TGFβ-activated kinase 1 (TAK1) and mitogen-activated protein kinase kinase kinase kinase 2 (MAP4K2)” (J Med Chem, 2015)
The source made the active and inactive calls. No cut-off for these calls is given here.

Columns and labels:
[1] = molecular target: Tyrosine-protein kinase ABL1 (Homo sapiens, UniProt P00519); assay: Inhibition of ABL Lys1 labeling site in human A-375 cells at 0.5 uM by KiNativ Profiling analysis relative to control; format: cell-based
[2] = molecular target: Serine/threonine-protein kinase PAK 4 (Homo sapiens) (UniProt O96013); assay: Inhibition of PAK4 (unknown origin) at 10 uM by Ambit Kinomescan binding assay
[3] = molecular target: T1, Kinase suppressor of Ras 1 (Homo sapiens) (UniProt Q8IVT5); assay: Inhibition of KSR1 ACT labeling site harbouring SKNVFYDNGKVVITDFGLFGISGVVR in human A-375 cells at 0.05 uM by KiNativ Profiling analysis relative to control; format: cell-based
T1 sequence (whole entry): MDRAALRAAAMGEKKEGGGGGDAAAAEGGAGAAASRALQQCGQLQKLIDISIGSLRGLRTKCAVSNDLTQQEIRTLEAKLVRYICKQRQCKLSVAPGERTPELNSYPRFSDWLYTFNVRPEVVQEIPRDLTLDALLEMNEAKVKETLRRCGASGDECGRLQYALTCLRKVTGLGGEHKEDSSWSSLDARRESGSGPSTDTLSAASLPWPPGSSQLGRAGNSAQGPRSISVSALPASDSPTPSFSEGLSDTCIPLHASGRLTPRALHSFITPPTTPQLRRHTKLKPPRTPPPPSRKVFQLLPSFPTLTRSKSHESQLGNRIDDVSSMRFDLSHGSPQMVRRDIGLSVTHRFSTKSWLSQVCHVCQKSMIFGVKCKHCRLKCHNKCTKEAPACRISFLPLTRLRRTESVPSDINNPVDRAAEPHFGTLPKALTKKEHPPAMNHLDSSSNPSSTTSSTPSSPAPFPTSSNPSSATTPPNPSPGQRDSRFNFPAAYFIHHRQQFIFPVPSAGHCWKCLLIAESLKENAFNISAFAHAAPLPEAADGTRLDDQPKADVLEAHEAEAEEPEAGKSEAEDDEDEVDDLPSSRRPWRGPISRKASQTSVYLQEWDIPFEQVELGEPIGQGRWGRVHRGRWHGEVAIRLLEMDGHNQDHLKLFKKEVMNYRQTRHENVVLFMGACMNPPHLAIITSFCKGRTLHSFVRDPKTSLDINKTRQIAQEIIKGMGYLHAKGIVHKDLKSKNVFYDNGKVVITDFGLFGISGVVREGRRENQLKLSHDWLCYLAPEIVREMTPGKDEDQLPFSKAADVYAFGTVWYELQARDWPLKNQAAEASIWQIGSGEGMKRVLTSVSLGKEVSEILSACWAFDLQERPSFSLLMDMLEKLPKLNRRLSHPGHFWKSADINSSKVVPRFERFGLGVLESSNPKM

[4] = molecular target: T2, Mitogen-activated protein kinase kinase kinase kinase 2 (Homo sapiens) (UniProt Q12851); assay: Inhibition of MAP4K2 (GCK) Lys1 labeling site in human A-375 cells at 0.05 uM by KiNativ Profiling analysis relative to control; format: cell-based
T2 sequence (whole entry): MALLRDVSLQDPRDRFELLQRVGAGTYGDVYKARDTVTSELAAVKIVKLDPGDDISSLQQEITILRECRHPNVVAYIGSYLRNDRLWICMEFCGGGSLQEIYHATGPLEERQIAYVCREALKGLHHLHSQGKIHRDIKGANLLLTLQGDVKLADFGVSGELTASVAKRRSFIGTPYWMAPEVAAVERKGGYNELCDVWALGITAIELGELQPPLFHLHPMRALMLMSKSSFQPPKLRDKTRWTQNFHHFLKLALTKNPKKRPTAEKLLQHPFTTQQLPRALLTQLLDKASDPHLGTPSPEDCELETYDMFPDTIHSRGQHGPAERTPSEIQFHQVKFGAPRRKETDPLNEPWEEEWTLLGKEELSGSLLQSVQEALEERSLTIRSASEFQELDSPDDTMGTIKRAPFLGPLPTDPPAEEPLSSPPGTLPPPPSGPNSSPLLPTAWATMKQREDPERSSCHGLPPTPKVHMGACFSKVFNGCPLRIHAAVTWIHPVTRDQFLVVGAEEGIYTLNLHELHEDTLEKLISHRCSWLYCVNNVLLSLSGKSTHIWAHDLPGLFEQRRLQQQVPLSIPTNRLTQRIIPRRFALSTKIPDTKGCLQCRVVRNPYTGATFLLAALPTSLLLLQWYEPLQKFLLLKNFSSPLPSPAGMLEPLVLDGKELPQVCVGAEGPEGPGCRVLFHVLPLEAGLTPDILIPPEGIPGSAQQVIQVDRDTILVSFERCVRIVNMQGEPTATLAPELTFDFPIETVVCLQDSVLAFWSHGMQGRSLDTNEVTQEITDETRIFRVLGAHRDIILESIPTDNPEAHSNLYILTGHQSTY

[5] = molecular target: p38 delta/gamma (Homo sapiens) (UniProt O15264+P53778); assay: Inhibition of p38d/g K2 labeling site in human Huh-7 cells at 10 uM by KiNativ Profiling analysis relative to control; format: cell-based
[6] = molecular target: Ribosomal protein S6 kinase alpha-3 (Homo sapiens) (UniProt P51812); assay: Inhibition of RSK2 Domain 1 ACT labeling site harbouring LTDFGLSKESIDHEK in human Huh-7 cells at 10 uM by KiNativ Profiling analysis relative to control; format: cell-based
[7] = molecular target: c-Jun N-terminal kinase, JNK (Homo sapiens) (UniProt P45983+P53779+P45984); assay: Inhibition of JNK1/2/3 K2 labeling site in human Huh-7 cells at 1 uM by KiNativ Profiling analysis relative to control; format: cell-based
[8] = test system: Epidermal growth factor receptor (Homo sapiens), P00533 [L861Q]; assay: Inhibition of EGFR L861Q mutant (unknown origin) at 1 uM by Ambit Kinomescan binding assay relative to control
[9] = molecular target: Tyrosine-protein kinase Lck (Homo sapiens) (UniProt P06239); assay: Inhibition of LCK (unknown origin) at 1 uM by Ambit Kinomescan binding assay relative to control
[10] = Inhibition of p70S6K Lys2 labeling site in human Huh-7 cell lysate at 1 uM by KiNativ Profiling analysis relative to control; conditions: condition cancer
[11] = molecular target: Ribosomal protein S6 kinase alpha-5 (Homo sapiens) (UniProt O75582); assay: Inhibition of MSK1 domain1 ATP Loop labeling site in human Huh-7 cells at 1 uM by KiNativ Profiling analysis relative to control; format: cell-based
Chain of Ribosomal protein S6 kinase alpha-5 (Homo sapiens) (O75582 whole entry, looked up, the tested form may be a part): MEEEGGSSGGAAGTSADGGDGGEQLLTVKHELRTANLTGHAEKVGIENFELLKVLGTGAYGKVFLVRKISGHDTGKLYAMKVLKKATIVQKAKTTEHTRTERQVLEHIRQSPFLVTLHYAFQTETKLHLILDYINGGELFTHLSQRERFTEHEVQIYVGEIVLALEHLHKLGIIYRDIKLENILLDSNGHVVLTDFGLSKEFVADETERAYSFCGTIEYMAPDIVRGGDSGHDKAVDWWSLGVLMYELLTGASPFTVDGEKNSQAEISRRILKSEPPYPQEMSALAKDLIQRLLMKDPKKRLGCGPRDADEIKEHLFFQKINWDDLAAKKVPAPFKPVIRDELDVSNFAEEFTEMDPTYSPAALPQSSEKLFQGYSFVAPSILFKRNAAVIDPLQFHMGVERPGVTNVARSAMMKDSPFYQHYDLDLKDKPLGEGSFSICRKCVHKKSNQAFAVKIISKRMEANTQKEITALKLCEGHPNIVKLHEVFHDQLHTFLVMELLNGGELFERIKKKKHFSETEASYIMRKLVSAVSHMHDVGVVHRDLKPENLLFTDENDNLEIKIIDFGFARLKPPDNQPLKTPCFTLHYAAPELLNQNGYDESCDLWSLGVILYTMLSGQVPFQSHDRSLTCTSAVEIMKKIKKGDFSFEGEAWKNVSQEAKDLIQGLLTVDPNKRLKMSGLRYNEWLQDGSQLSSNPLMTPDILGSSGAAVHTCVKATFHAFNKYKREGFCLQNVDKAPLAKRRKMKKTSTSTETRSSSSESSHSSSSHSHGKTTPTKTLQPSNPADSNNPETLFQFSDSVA

Chain of Epidermal growth factor receptor (Homo sapiens), P00533 [L861Q] (P00533 whole entry L861Q): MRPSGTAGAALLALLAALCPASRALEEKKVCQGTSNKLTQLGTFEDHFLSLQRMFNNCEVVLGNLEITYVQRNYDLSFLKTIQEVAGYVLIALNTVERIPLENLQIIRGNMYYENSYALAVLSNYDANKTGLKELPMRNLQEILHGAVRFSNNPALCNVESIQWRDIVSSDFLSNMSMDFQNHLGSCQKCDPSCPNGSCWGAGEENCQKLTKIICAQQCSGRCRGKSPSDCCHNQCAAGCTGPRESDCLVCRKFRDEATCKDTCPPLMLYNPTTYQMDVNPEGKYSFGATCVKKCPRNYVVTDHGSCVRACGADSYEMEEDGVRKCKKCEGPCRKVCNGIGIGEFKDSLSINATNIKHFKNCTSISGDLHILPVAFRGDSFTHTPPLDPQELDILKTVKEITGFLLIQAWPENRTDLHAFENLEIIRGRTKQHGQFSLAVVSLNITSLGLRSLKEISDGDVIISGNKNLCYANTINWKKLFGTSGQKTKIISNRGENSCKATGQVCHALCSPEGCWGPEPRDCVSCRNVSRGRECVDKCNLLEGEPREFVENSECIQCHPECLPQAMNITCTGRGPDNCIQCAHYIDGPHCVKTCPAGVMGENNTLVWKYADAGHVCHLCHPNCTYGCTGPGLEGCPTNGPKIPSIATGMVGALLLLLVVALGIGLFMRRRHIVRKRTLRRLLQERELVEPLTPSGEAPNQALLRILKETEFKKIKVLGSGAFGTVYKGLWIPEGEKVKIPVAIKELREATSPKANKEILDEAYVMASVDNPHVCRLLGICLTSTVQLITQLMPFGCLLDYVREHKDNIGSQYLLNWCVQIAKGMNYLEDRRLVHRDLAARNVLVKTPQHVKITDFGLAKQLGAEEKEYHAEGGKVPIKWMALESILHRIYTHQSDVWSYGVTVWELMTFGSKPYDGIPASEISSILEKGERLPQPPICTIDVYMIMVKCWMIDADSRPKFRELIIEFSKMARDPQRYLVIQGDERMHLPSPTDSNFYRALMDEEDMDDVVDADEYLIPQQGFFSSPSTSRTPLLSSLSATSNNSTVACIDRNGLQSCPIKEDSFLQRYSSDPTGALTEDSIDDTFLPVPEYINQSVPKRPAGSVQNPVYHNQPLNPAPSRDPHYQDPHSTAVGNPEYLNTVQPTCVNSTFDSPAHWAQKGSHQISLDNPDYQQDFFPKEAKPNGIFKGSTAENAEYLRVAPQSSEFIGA
Chain of Tyrosine-protein kinase ABL1 (P00519 whole entry): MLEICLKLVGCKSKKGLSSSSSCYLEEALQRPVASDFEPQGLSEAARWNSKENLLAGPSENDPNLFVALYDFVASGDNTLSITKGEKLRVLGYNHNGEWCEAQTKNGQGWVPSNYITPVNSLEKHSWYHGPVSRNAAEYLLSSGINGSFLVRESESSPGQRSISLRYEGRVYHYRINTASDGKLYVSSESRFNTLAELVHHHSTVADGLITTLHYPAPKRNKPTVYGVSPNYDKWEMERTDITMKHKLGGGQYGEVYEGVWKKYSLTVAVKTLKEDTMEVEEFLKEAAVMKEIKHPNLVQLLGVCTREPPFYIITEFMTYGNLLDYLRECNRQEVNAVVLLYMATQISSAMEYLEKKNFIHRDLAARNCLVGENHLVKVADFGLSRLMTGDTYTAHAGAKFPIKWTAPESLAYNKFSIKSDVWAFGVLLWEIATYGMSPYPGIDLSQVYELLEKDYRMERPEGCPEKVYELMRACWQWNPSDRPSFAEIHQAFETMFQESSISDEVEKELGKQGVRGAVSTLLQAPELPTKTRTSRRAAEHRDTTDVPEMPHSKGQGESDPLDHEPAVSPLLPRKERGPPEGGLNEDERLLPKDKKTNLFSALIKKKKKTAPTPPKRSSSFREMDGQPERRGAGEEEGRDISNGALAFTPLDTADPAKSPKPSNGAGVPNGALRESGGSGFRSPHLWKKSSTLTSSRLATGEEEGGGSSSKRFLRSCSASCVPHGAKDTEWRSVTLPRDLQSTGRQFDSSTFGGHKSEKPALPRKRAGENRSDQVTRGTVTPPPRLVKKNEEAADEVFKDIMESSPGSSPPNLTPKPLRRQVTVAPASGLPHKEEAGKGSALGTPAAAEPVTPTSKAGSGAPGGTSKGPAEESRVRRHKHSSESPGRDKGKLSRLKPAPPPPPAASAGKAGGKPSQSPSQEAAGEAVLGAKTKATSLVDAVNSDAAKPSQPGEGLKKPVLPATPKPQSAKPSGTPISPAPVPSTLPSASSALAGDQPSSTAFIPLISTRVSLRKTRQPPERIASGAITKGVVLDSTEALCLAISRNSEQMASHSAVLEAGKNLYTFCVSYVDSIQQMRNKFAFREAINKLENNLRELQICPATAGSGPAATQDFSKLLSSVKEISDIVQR
Chain of Ribosomal protein S6 kinase alpha-3 (Homo sapiens) (P51812 whole entry, the tested form may be a part): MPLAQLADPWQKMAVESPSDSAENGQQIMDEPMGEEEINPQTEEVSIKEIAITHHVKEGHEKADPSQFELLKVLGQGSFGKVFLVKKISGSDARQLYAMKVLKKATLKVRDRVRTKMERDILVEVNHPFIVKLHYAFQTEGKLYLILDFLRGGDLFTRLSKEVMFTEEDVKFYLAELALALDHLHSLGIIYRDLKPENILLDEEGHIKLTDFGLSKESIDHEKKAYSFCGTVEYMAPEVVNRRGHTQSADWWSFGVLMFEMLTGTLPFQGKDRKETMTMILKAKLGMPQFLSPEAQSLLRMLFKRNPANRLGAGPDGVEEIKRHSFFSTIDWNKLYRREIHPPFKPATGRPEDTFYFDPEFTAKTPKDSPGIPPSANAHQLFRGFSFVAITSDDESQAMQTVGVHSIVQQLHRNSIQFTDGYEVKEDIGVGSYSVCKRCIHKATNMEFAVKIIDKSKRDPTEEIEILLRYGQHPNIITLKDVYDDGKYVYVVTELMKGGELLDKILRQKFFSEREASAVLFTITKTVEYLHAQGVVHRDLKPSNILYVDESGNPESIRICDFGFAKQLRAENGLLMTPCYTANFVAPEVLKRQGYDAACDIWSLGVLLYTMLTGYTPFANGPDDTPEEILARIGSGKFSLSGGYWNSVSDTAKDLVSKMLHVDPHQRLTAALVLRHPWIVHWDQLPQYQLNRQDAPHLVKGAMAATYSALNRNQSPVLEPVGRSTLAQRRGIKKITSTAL
Chain of Serine/threonine-protein kinase PAK 4 (Homo sapiens) (O96013 whole entry, looked up): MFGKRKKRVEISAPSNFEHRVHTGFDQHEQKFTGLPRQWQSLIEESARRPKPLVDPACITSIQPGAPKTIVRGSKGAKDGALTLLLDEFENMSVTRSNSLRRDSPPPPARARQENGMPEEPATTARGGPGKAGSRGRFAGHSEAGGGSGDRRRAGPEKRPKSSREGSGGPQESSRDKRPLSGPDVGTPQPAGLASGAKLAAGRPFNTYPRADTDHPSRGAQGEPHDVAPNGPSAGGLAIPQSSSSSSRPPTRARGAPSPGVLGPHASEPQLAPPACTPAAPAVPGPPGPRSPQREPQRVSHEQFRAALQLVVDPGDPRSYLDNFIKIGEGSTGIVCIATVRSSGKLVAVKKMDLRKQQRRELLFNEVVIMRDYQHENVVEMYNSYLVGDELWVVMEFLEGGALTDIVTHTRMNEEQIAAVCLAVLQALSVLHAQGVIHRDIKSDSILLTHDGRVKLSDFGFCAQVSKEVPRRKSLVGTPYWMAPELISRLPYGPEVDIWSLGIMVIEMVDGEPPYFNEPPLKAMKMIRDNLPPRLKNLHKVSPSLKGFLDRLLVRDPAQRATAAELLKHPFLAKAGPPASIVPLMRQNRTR
Chain of Tyrosine-protein kinase Lck (Homo sapiens) (P06239 2-509 limits assumed): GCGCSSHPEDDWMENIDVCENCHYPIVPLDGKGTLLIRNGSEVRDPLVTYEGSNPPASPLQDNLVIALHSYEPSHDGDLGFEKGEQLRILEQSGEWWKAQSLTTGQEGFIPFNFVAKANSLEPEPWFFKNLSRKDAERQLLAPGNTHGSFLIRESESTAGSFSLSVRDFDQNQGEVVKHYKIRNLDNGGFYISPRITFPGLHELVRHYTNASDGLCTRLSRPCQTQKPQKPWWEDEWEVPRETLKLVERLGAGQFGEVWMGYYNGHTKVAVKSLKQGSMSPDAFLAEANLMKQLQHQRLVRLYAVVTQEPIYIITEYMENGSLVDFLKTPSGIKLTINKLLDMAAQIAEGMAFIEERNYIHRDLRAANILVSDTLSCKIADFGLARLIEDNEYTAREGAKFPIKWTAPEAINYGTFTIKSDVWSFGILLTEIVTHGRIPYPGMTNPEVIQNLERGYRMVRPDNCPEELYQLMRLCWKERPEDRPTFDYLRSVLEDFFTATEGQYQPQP

## CCN1CCN(Cc2ccc(NC(=O)c3ccc(C)c(Oc4ccnc5[nH]ccc45)c3)cc2C(F)(F)F)CC1
[1]
  inhibition: 85.5%
[2]
  inhibition: inactive
[3]
  inhibition: -2.6%
[4]
  inhibition: 98.2%
[5]
  inhibition: 65%
[6]
  inhibition: -1.5%
[7]
  inhibition: 29.4%

## CCN1CCN(Cc2ccc(NC(=O)c3ccc(C)c(/C=C/c4cnc5[nH]ccc5c4OC)c3)cc2C(F)(F)F)CC1
[8]
  inhibition: 0.25%
[9]
  inhibition: 0.35%

## CNc1cc(Oc2cc(C(=O)Nc3cc(N4CCN(C)CC4)cc(C(F)(F)F)c3)ccc2C)ncn1
[10]
  inhibition at 1 µM: 4.9%
[11]
  inhibition: 11.5%
